Source: US10040804B2, “Compounds targeting proteins, compositions, methods, and uses thereof” (BioTheryX, Inc., priority 2016, dated 2018)

Assays:
[1] = tested on: Molm-13 cells; assay: Molm-13 cell viability (CellTiter-Glo); assay type: cell-based; settings: Homo sapiens, MOLM-13, read-out: % Inhibition (MOLM-13 Cell Viability); for cytotoxicity at 10 µM: compound concentration 10 μM
How it was run: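 Molm-13 (RPMI-1640, 10% FBS) and H1048 (DMEM:F12, 5% FBS with supplements) plated at 20,000 cells/well, treated with compound or 0.1% DMSO for 3 days at 37° C., 5% CO2. Viability read by CellTiter-Glo luminescence after 10 min.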

[2] = tested on: IL-1β; assay: IL-1β expression in LPS stimulated PBMCs (Meso Scale); assay type: cell-based, human; settings: Homo sapiens, PBMC; for inhibition at 1 µM: compound concentration 1 μM; for inhibition at 0.1 µM: compound concentration 0.1 μM
How it was run: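 Human PBMCs (200,000 cells/well in RPMI-1640/10% FBS) were pretreated with compound for 1 h, then stimulated with 100 ng/mL LPS for 18-24 h. IL-1β in supernatant was measured by Meso Scale assay. Activity is expressed as percentage of LPS-induced level, with DMSO-treated wells as negative control.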

[3] = tested on: IL-2; assay: anti-CD3-induced IL-2 secretion in PBMCs; assay type: cell-based; settings: Homo sapiens, PBMC, anti-CD3 stimulated PBMCs, 24 h, DMSO = 1.0, read-out: Fold Change IL-2; for fold induction at 1 µM: compound concentration 1 μM; for fold induction at 0.1 µM: compound concentration 0.1 μM
Experimental: FIGS. 4 and 9D are graphs showing anti-CD3-induced IL-2 secretion in PBMCs. 1 ug/mL anti-CD3 (OKT-3) antibody in PBS were coated onto 96-well plates overnight at 4° C. Approximately 550,000 PBMCs were added to each well, followed by addition of DMSO only, Compound 1-8 at 10 μM (FIG. 4) or Compound 9 at 0.1 μM or 1 μM (FIG. 9D), or 10 μM lenalidomide (rev). Induction was measured after 24 h as fold difference from the DMSO stimulated control.
For the IL-2 analysis, 96 well plates were precoated with 1 ug/mL anti-human CD3 antibody (OKT3, eBioscience Inc.). After washing with PBS, compounds were added to the wells (50 μL/well) followed by PBMCs diluted at 3-4 million cells/mL (150 μL/well). Plates were incubated for 24 h and the supernatants collected for Mesoscale IL-2 analysis.
Compound activity was measured as fold difference from the DMSO control. IL-1-beta activity is shown in FIG. 1; IL-6 activity is shown in FIG. 2; TNF-α activity is shown in FIG. 3; and IL-2 activity is shown in FIG. 4.

[4] = target: T1, GSPT1 (Homo sapiens, UniProt P15170); assay: GSPT1 protein levels by Western Blot analysis; assay type: cell-based; settings: DMSO = 100.00; for remaining activity at 0.1 µM: 100 nM compound concentration; for remaining activity at 1 µM: 1 μM compound concentration
T1 construct: Whole cell extracts were prepared using RIPA buffer according to manufacturer's protocol (Pierce); endogenous in cells
T1 sequence (P15170 whole entry): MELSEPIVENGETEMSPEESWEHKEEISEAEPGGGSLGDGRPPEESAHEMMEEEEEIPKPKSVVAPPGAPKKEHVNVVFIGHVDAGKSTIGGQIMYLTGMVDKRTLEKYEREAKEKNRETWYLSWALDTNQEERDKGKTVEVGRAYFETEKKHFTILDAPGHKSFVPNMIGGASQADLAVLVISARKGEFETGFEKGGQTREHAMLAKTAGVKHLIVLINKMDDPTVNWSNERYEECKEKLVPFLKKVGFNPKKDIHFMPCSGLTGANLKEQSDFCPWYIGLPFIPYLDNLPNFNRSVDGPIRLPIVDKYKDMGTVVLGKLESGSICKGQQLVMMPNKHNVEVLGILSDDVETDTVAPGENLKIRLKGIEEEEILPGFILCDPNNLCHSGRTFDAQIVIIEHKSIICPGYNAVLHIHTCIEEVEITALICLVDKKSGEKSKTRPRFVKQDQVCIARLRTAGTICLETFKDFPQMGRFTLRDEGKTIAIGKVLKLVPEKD
T1 sequence (Q96SW2 whole entry, further chain): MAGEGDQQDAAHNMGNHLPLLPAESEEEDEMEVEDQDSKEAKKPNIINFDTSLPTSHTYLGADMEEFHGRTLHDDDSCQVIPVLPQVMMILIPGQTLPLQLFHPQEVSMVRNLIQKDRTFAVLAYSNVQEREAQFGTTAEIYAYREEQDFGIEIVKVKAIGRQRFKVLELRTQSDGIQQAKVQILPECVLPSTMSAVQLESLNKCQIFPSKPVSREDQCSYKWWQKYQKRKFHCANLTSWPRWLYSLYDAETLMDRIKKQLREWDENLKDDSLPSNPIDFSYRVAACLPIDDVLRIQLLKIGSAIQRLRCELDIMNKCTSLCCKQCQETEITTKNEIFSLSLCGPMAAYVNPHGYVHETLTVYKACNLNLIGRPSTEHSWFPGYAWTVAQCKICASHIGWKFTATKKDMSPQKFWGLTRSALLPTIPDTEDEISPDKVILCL
T1 sequence (Q16531 whole entry partner): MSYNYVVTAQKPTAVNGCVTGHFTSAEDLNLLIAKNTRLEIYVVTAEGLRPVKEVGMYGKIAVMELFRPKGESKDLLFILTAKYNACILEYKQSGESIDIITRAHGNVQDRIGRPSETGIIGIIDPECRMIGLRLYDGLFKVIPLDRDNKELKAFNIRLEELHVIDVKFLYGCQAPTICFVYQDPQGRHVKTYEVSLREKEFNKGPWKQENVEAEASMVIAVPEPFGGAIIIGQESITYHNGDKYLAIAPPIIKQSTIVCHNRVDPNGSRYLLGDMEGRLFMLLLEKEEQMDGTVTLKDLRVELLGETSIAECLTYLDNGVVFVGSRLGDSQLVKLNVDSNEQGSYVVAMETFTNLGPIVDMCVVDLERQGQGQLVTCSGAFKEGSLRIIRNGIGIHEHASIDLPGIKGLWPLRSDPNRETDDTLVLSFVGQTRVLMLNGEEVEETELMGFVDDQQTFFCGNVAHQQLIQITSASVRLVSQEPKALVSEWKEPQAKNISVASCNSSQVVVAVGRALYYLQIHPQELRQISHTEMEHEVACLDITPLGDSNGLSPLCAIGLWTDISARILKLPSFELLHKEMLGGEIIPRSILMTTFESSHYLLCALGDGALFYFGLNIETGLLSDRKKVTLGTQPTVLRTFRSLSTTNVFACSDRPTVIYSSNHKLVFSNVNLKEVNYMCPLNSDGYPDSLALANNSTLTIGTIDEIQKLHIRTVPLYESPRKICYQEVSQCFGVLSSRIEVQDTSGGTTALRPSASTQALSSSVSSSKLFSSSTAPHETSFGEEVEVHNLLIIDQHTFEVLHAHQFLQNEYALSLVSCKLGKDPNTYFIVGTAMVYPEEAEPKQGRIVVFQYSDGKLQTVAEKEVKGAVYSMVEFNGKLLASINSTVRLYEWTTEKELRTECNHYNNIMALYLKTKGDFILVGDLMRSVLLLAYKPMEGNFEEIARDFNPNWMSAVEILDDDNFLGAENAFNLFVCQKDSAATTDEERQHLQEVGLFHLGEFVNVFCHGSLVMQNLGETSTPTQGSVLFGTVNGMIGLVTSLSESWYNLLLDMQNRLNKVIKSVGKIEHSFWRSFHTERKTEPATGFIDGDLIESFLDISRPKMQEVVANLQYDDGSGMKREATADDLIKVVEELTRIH
Experimental: Cells were lysed using RIPA Buffer (Pierce) and a Western Blot analysis was performed using anti-GSPT1 and anti-β-actin antibodies. FIG. 11B is a graph showing the expression levels of GSPT1 protein in Molm-13 (AML) cells. Protein expression levels were measured using the LiCor Odyssey instrumentation and methods.
Western Blot Protocol: Cell lines were grown in RPMI 1640 supplemented with streptomycin, penicillin and 10% fetal bovine serum.
Cells were cultured at approximately 10^6 cells per mL and incubated in DMSO or each of the indicated compounds for 6-8 h. Whole cell extracts were prepared using RIPA buffer according to manufacturer's protocol (Pierce). Briefly, 2×10^6 cells were washed once in PBS, the cell pellets were resuspended in RIPA buffer and allowed to incubate for 15 minutes on ice. Cells debris was removed by centrifugation and the cleared whole cell lysates were transferred to new tubes for further analysis.
For Western blot analysis, whole cell protein extracts were separated on 4-12% SDS-polyacrylamide gels, transferred to nitrocellulose, and probed with the indicated primary antibodies. Membranes were subsequently washed and probed with the appropriate IRDye secondary antibodies (LI-COR). The signal was detected using the Odyssey Imaging System (LI-COR).
GSPT1: Rabbit anti-GSPT1 was obtained from Abcam, ab126090 (Cambridge, Eng.)

[5] = tested on: MDA-MB-231 cells; assay: MDA-MB-231 cell viability (CellTiter-Glo); assay type: cell-based; settings: Homo sapiens, 72 h, 3 days, DMSO = 100.00; for viability at 1 µM: 1 μM compound concentration; for viability at 10 µM: 10 μM compound concentration
Experimental: (§1) Molm-13 cells were cultivated in RPMI-1640 (10% FBS/1% pen-strep) and were plated in white walled 96-well plates at 20,000 cells/well. H1048 cells were cultured in DMEM:F12 media supplemented with 5% fetal bovine serum, insulin, transferrin, sodium selenite, hydrocortisone, β-estradiol, penicillin and streptomycin, and were plated in white walled 96-well plates at 20,000 cells/well. MDA-MB-231 cells were cultured in DMEM media supplemented with 10% fetal bovine serum, penicillin and streptomycin, and were plated in white walled 96-well plates at 10,000 cells/well. Cells were treated with compound or DMSO (0.1%, control) and the cultures were incubated for 3 days at 37° C. and 5% CO2. Following the incubation period, 100 μL of CellTiterGlow (CTG) reagent (CellTiter-Glo® Luminescent Cell Viability Assay, Promega (Madison, Wis.)) was added to each well. Following a 10 min incubation with shaking, luminescence was measured using a Victor Wallac Luminometer.

[6] = tested on: H1048 cells; assay: H1048 cell viability (CellTiter-Glo); assay type: cell-based; settings: Homo sapiens, NCI-H1048, 72 h, H1048, 3 days, DMSO = 100.00; for viability at 1 µM: 1 μM compound concentration; for viability at 10 µM: 10 μM compound concentration
Experimental: FIG. 10A is a graph showing antiproliferative activity in H1048 (SCLC) cells. FIG. 10B is a graph showing antiproliferative activity in Molm-13 (AML) cells. In FIGS. 10A and 10B, the cells were incubated for 72 hrs with Compound 9 at the indicated concentrations or DMSO. Compound activity was measured based on the signal from remaining viable cells.
as §1

[7] = tested on: TNF-α; assay: TNF-α expression in LPS stimulated PBMCs (Meso Scale); assay type: cell-based, human; settings: Homo sapiens, PBMC; for inhibition at 1 µM: compound concentration 1 μM; for inhibition at 0.1 µM: compound concentration 0.1 μM
How it was run: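 Thawed primary human PBMCs, 200,000 cells/well in RPMI-1640/10% FBS, pretreated with compound 1 h, then stimulated with 100 ng/mL LPS for 18-24 h. Supernatant TNF-α measured by Meso Scale assay; activity expressed as percentage of LPS-induced level, DMSO as negative control.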

[8] = tested on: IL-6; assay: IL-6 expression in LPS stimulated PBMCs (Meso Scale); assay type: cell-based, human; settings: Homo sapiens, PBMC, LPS-stimulated PBMCs; for inhibition at 1 µM: compound concentration 1 μM; for inhibition at 0.1 µM: compound concentration 0.1 μM
How it was run: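 Thawed human PBMCs at 200,000 cells/well in RPMI-1640/10% FBS were pretreated with compound or DMSO for 1 h, then stimulated with 100 ng/mL LPS for 18–24 h. Supernatant IL-6 was measured by Meso Scale assay and expressed as % of LPS-induced activity.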

| remaining activity at 0.1 µM [4] [%] | remaining activity at 1 µM [4] [%] | SMILES | cytotoxicity at 1 µM ([1]; compound concentration 1 μM) [%] | inhibition at 1 µM [2] [%] | fold induction at 1 µM [3] | viability at 1 µM [5] [%] | viability at 10 µM [5] [%] | viability at 1 µM [6] [%] | viability at 10 µM [6] [%] | inhibition at 1 µM [7] [%] | inhibition at 1 µM [8] [%] | cytotoxicity at 10 µM [1] [%] | cytotoxicity at 0.5 µM ([1]; compound concentration 0.5 μM) [%] | inhibition at 0.1 µM [2] [%] | fold induction at 0.1 µM [3] | inhibition at 0.1 µM [7] [%] | inhibition at 0.1 µM [8] [%] | cytotoxicity at 0.003 µM ([1]; compound concentration 0.003 μM) [%] |
| --- | --- | --- | --- | --- | --- | --- | --- | --- | --- | --- | --- | --- | --- | --- | --- | --- | --- | --- |
| 42.7 | 5.28 | Cc1ccc(NC(=O)NCc2scc3c2CN([C@H]2CCCC(=O)NC2=O)C3=O)cc1Cl [Compound 30, (S)-1-(3-Chloro-4-methylphenyl)-3-((5-(2,7-dioxoazepan-3-yl)-4-oxo-5,6-dihydro-4H-thieno[3,4-c]pyrrol-1-yl)methyl)urea] | 50 | 81 | 0.4 | 52.9 | 26.3 | 8.55 | 8.34 | 84 | 98 |  |  |  |  |  |  |  |
| 131 | 108 | Cc1ccc(CC(=O)NCc2scc3c2CN([C@H]2CCCC(=O)NC2=O)C3=O)cc1Cl [Compound 31, (S)-2-(3-Chloro-4-methylphenyl)-N-((5-(2,7-dioxoazepan-3-yl)-4-oxo-5,6-dihydro-4H-thieno[3,4-c]pyrrol-1-yl)methyl)acetamide] |  | 76 | 1.7 | 103 | 107 | 84.3 | 26.8 | 80 | 40 | 12 |  |  |  |  |  |  |
| 61.7 | 29.3 | O=C1CCC[C@H](N2Cc3c(csc3CNC(=O)Nc3ccc(C(F)(F)F)c(Cl)c3)C2=O)C(=O)N1 [Compound 32, (S)-1-(3-Chloro-4-(trifluoromethyl)phenyl)-3-((5-(2,7-dioxoazepan-3-yl)-4-oxo-5,6-dihydro-4H-thieno[3,4-c]pyrrol-1-yl)methyl)urea] |  |  |  | 91.2 | 44.3 | 10.6 | 10.8 |  |  |  | 25 | 67 | 0.8 | 62 | 65 |  |
| 5.9 | 5.5 | Cc1ccc(CNC(=O)NCc2scc3c2CN(C2CCC(=O)NC2=O)C3=O)cc1Cl (stereo not shown) [Compound 33, 1-(3-Chloro-4-methylbenzyl)-3-((5-(2,6-dioxopiperidin-3-yl)-4-oxo-5,6-dihydro-4H-thieno[3,4-c]pyrrol-1-yl)methyl)urea] |  |  |  | 21.7 | 19.8 | 8.76 | 8.21 |  |  |  |  | 95 | 0.3 | 95 | 99 | 50 |
| 84.9 | 37.5 | Cc1ccc(CNC(=O)NCc2scc3c2CN([C@H]2CCCC(=O)NC2=O)C3=O)cc1Cl [Compound 34, (S)-1-(3-Chloro-4-methylbenzyl)-3-((5-(2,7-dioxoazepan-3-yl)-4-oxo-5,6-dihydro-4H-thieno[3,4-c]pyrrol-1-yl)methyl)urea] |  | 70 | 1.6 | 102 | 44.4 | 12.9 | 8.34 | 69 | 39 | 99 |  |  |  |  |  |  |
| 112 | 44.5 | Cc1ccc(NC(=O)NCc2cc3c(s2)C(=O)N([C@H]2CCCC(=O)NC2=O)C3)cc1Cl [Compound 35, (S)-1-(3-Chloro-4-methylphenyl)-3-((5-(2,7-dioxoazepan-3-yl)-6-oxo-5,6-dihydro-4H-thieno[2,3-c]pyrrol-2-yl)methyl)urea] |  | 44 | 1.4 | 99 | 64.8 | 15.5 | 12.4 | 39 | 16 | 93 |  |  |  |  |  |  |
| 92.9 | 32.6 | Cc1cc(C)c(NC(=O)NCc2scc3c2CN([C@H]2CCCC(=O)NC2=O)C3=O)cc1Cl [Compound 36, (S)-1-(5-Chloro-2,4-dimethylphenyl)-3-((5-(2,7-dioxoazepan-3-yl)-4-oxo-5,6-dihydro-4H-thieno[3,4-c]pyrrol-1-yl)methyl)urea] |  | 40 | 0.8 | 101 | 53.4 | 10.6 | 7.51 | 33 | 38 | 100 |  |  |  |  |  |  |
| 124 | 154 | Cc1ccc(NC(=O)NCc2scc3c2CN([C@H]2CCCC(=O)NC2=O)C3=O)cn1 [Compound 37, (S)-1-((5-(2,7-Dioxoazepan-3-yl)-4-oxo-5,6-dihydro-4H-thieno[3,4-c]pyrrol-1-yl)methyl)-3-(6-methylpyridin-3-yl)urea] |  | 4 | 1.1 | 106 | 97.7 | 55 | 10.5 | 6 | 3 | 51 |  |  |  |  |  |  |
